Measured values from US8557816B2, “Aurora kinase modulators and method of use” (Amgen Inc., priority 2007, dated 2013).

Experiments:
AuroraB = biological target: T1, AuroraB (Homo sapiens, UniProt Q96GD4); test: AuroraB Homogeneous Time Resolved Fluorescent (HTRF) kinase assay; type: biochemical; conditions: average; read-out: AurB_IC50_IP (uM Avg)
T1 construct: 20 μL of AuroraB FL H is for a final volume of 41 μL; His
Summary of the method: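 Full-length His-tagged kinase phosphorylates biotinylated Histone H3 (0.1 μM final) with ATP in pH 7.5 HEPES containing MgCl, MnCl, DTT and BSA for about 90 min. EDTA-containing detection mix with SA-APC and Eu-anti-phosphoHistone H3 then equilibrated about 60 min; HTRF read with 320 nm excitation, emissions 615/655 nm.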

AuroraA-TPX2 = biological target: T2, AuroraA-TPX2 (Homo sapiens, UniProt O14965); test: AuroraA-TPX2 Homogeneous Time Resolved Fluorescent (HTRF) kinase assay; type: biochemical; conditions: average; read-out: AurA_IC50_IP (uM Avg)
T2 construct: 20 μL of AuroraA-TPX2 KD GST for a final volume of about 41 μL; GST
T2 sequence (O14965 133-383 limits assumed): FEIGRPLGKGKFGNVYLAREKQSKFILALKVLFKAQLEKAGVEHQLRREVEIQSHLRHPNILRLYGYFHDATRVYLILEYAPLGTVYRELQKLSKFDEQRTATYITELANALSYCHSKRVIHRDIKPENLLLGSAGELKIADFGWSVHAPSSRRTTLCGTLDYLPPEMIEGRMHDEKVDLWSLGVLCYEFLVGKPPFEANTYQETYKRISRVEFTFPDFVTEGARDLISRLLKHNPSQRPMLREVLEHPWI
T2 sequence (Q9ULW0 1-43 partner limits assumed): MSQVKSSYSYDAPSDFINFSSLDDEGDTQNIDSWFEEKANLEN
Summary of the method: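 HTRF read-out (Eu 615 nm to APC 655 nm) of phosphorylated biotin-PLK, detected with 0.02 nM europium anti-phosphoPLK antibody and 0.0005 mg/mL SA-APC after overnight equilibration.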

T1 sequence (Q96GD4 whole entry): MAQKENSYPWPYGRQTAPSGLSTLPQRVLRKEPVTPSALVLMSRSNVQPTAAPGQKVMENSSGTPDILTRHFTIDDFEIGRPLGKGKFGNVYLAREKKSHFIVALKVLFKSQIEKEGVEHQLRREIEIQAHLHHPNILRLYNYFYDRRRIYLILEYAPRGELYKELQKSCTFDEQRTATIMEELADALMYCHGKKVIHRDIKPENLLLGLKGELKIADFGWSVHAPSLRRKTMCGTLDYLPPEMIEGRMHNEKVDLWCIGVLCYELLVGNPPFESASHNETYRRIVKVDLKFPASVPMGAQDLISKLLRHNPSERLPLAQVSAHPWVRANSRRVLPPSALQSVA

IC50 (AuroraB) | IC50 (AuroraA-TPX2) | Structure (SMILES)
0.043 µM | 0.057 µM | COc1cc2nccc(Oc3ccc(Nc4nnc(-c5cc(C)ccn5)c5ccccc45)cc3)c2cc1OC [compound 117, N-(4-((6,7-bis(methyloxy)-4-quinolinyl)oxy)phenyl)-4-(4-methyl-2-pyridinyl)-1-phthalazinamine]
0.015 µM | 0.045 µM | N#Cc1cc2nccc(Sc3ccc(Nc4nnc(-c5ccc(Cl)cn5)c5ccccc45)cc3)c2s1 [compound 460]
0.009 µM | 0.027 µM | COc1cnc2c(Sc3ccc(Nc4nnc(-c5ccc6cn(C)nc6c5)c5ccccc45)cc3)ccnc2c1 [compound 502]
0.032 µM | 0.228 µM | COc1cnc2c(Sc3ccc(Nc4nnc(N5CCn6ncnc6C5)c5ccccc45)cc3)ccnc2c1 [compound 579]
0.004 µM | 0.128 µM | COc1cnc2c(Oc3ccc(Nc4nnc(-c5ccc(N6CCCCC6)cc5)c5ccccc45)cc3)ccnc2c1 [compound 198, N-(4-((7-(methyloxy)-1,5-naphthyridin-4-yl)oxy)phenyl)-4-(4-(1-piperidinyl)phenyl)-1-phthalazinamine]
0.019 µM | 0.061 µM | COc1cnc2c(Sc3ccc(Nc4nnc(N5CCC[C@@H](OC)C5)c5ccccc45)cc3)ccnc2c1 [compound 532]
0.004 µM | 0.415 µM | Cc1ccc(-c2nnc(Nc3ccc(Sc4ccnc5ccoc45)cc3)c3ccccc23)nc1 [compound 482]
0.016 µM | 0.062 µM | CCc1cc(-c2ccccc2)nnc1Nc1ccc(Oc2ncnc3cc(OC)c(OC)cc23)cc1 [compound 148, N-(4-((6,7-bis(methyloxy)-4-quinazolinyl)oxy)phenyl)-4-ethyl-6-phenyl-3-pyridazinamine]
0.03 µM | 0.079 µM | Cn1cc(-c2ccc3nccc(Oc4ccc(Nc5nnc(-c6ccccc6)c6ccccc56)cc4)c3c2)cn1 [Example 45, N-(4-(6-(1-Methyl-1H-pyrazol-4-yl)quinolin-4-yloxy)phenyl)-4-phenylphthalazin-1-amine]
0.004 µM | 0.034 µM | COc1cnc2c(Oc3ccc(Nc4nnc(-c5ccc(Cl)cn5)c5ccccc45)cc3)ccnc2c1 [compound 228, 4-(5-chloro-2-pyridinyl)-N-(4-((7-(methyloxy)-1,5-naphthyridin-4-yl)oxy)phenyl)-1-phthalazinamine]
0.005 µM | 0.042 µM | Cc1ccc(-c2nnc(Nc3ccc(Sc4ccnc5cccnc45)cc3)c3ccccc23)cn1 [compound 553]
0.026 µM | 0.15 µM | COc1cnc2c(Sc3ccc(Nc4nnc(-c5ccccc5F)c5ccccc45)cc3)ccnc2c1 [compound 495]
0.053 µM | 0.083 µM | COc1cnc2c(Sc3ccc(Nc4nnc(-c5ccccc5)c5ccccc45)cc3F)ccnc2c1 [compound 519]
0.011 µM | 0.034 µM | COc1cnc2c(Oc3ccc(Nc4nnc(-c5ccc(C)c(Cl)c5)c5ccccc45)cc3)ccnc2c1 [compound 224, 4-(3-chloro-4-methylphenyl)-N-(4-((7-(methyloxy)-1,5-naphthyridin-4-yl)oxy)phenyl)-1-phthalazinamine]
0.012 µM | 0.009 µM | COc1cc2ncnc(Oc3ccc(Nc4nnc(-c5cc(C)cs5)c5ccccc45)cc3)c2cc1OC [compound 153, N-(4-((6,7-bis(methyloxy)-4-quinazolinyl)oxy)phenyl)-4-(4-methyl-2-thienyl)-1-phthalazinamine]
0.018 µM | 0.099 µM | COc1cnc2c(Oc3ccc(Nc4nnc(-c5cccc(C)n5)c5ccccc45)cn3)ccnc2c1 [compound 128, N-(6-((7-(methyloxy)-1,5-naphthyridin-4-yl)oxy)-3-pyridinyl)-4-(6-methyl-2-pyridinyl)-1-phthalazinamine]

IC50 (AuroraB) | IC50 (AuroraA-TPX2) | Structure (SMILES)
0.003 µM | 0.026 µM | COc1cnc2c(Oc3ccc(Nc4nnc(-c5ccc6c(ccn6C)c5)c5ccccc45)cc3)ccnc2c1 [compound 204, 4-(1-methyl-1H-indol-5-yl)-N-(4-((7-(methyloxy)-1,5-naphthyridin-4-yl)oxy)phenyl)-1-phthalazinamine]
> 25 µM | > 25 µM | FC(F)(F)Oc1ccc2nccc(Sc3ccc(Nc4nnc(-c5ccccc5)c5ccccc45)cc3)c2c1 [compound 571]
0.063 µM | 0.04 µM | COc1ccc2c(Oc3ccc(Nc4nnc(-c5ccccc5)c5c4CCC5)cc3)ccnc2c1 [compound 368, N-(4-(7-methoxyquinolin-4-yloxy)phenyl)-4-phenyl-6,7-dihydro-5H-cyclopenta[d]pyridazin-1-amine]
0.009 µM | 0.082 µM | COc1cnc2c(Sc3ccc(Nc4nnc(NCCCSC)c5ccccc45)cc3)ccnc2c1 [compound 508]
0.002 µM | 0.009 µM | c1ccc(-c2nnc(Nc3ccc(Oc4ccnc5cc(-c6cn[nH]c6)ccc45)cc3)c3ccccc23)cc1 [compound 417]
0.002 µM | 0.01 µM | COc1cnc2c(Oc3ccc(Nc4nnc(-c5cccc(OC)n5)c5ccccc45)cc3)ccnc2c1 [compound 99, N-(4-((7-(methyloxy)-1,5-naphthyridin-4-yl)oxy)phenyl)-4-(6-(methyloxy)-2-pyridinyl)-1-phthalazinamine]
0.006 µM | 0.107 µM | Clc1ccc(-c2nnc(Nc3ccc(Oc4ncnc5ccccc45)cc3)c3ccccc23)cc1 [compound 562]
0.023 µM | 0.014 µM | COc1cnc2c(Oc3ccc(Nc4nnc(-c5cc(Cl)cs5)c5ccccc45)cc3)ccnc2c1 [compound 298, 4-(4-chloro-2-thienyl)-N-(4-((7-(methyloxy)-1,5-naphthyridin-4-yl)oxy)phenyl)-1-phthalazinamine]
0.01 µM | 0.01 µM | COc1cccc(-c2nnc(Nc3ccc(Oc4ccnc5cc(OC)c(OC)cc45)cc3)c3ccccc23)n1 [compound 101, N-(4-((6,7-bis(methyloxy)-4-quinolinyl)oxy)phenyl)-4-(6-(methyloxy)-2-pyridinyl)-1-phthalazinamine]
0.051 µM | 0.094 µM | CCc1cc(-c2ccc3c(c2)OCO3)nnc1Nc1ccc(Oc2ccnc3cc(OC)cnc23)cc1 [compound 594]
0.059 µM | 1.73 µM | Cc1ccc(-c2nnc(Nc3ccc(Sc4ccnc5ccoc45)cc3)c3ccccc23)cc1F [Example 398, 4-(3-Fluoro-4-methylphenyl)-N-(4-(furo[3,2-b]pyridin-7-ylthio)phenyl)phthalazin-1-amine]
0.015 µM | 0.013 µM | COc1cnc2c(Oc3ccc(Nc4nnc(-c5cc6ccccc6s5)c5ccccc45)cc3)ccnc2c1 [compound 171, 4-(1-benzothien-2-yl)-N-(4-((7-(methyloxy)-1,5-naphthyridin-4-yl)oxy)phenyl)-1-phthalazinamine]
0.032 µM | 0.014 µM | COc1cc2nccc(Oc3ccc(Nc4nnc(-c5ccc(C)c(C)c5)c5ccccc45)cc3)c2cc1OC [compound 74, N-(4-((6,7-bis(methyloxy)-4-quinolinyl)oxy)phenyl)-4-(3,4-dimethylphenyl)-1-phthalazinamine]
0.003 µM | 0.022 µM | Clc1ccc(-c2nnc(Nc3ccc(Sc4ccnc5cccnc45)cc3)c3ccccc23)cc1 [Example 33, N-(4-(1,5-naphthyridin-4-ylthio)phenyl)-4-(4-chlorophenyl)phthalazin-1-amine]
0.009 µM | 0.023 µM | COc1cnc2c(Sc3ccc(Nc4nnc(N5CCN6CCC[C@H]6C5)c5ccccc45)cc3)ccnc2c1 [compound 563]
